From patent US20100311841A1, “SYNTHETIC SPHINGOLIPID ANALOGS” (priority 2007, published 2010)

System: TSU-PR1 cells
Assay: TSU-PR1 tumor xenograft in whole-body-irradiated BALB/NUDE mice
Format: in vivo
Details: BALB/NUDE mice irradiated with 400 cGy, s.c. TSU-PR1 tumors; AD-2813 20 mg/kg in cremophor s.c. daily close to tumor; after about 10 days of treatment; compared to control and cremophor groups (FIG. 1)
Protocol: BALB/NUDE mice were whole body irradiated with 400 cGy, 10 days later they were injected s.c. with 3.5*10e6 TSU-PR1 cells/mouse which are commonly considered as prostate carcinoma cells but recently are also considered by some as bladder carcinoma cells. Eight days later, tumors were formed, and mice were separated into 3 groups: Group 1: a control without any injection. Group 2: were injected s.c. with vehicle (cremophor) Group 3: were treated s.c. daily with AD-2813 (20 mg/kg in cremophor) close to tumor. […] The drastic change in tumor volume is pronounced particularly when compared to the control and treatment with cremophor groups.

CCCCCCCCCCCCCCNC(CO)C(O)c1ccc(SC)cc1.Cl (stereo not shown) [AD-2813]
tumor volume: significant decrease in tumor volume
